Experimental data published in US7662412B2, “Traditional Chinese medicine composition to treat rheumatoid arthritis and preparation method thereof” (priority 2005, dated 2010).

What was measured:
interleukin-1 (IL-1) = assay: IL-1 activity of LPS-induced peritoneal macrophages of adjuvant arthritis rats (thymocyte bioassay); type: in vivo, rat; conditions: AA rats, 5 mg; 570 nm; model group 0.87 ± 0.03
Method: Fizzer complete adjuvant (from Sigma Co.) was emulsified and injected subcutaneously and sterilely 0.1 ml into the right meta voix pedis of each rat (♂, 160±20 g) to establish a model of adjuvant-induced arthritis.
Preparation of peritoneal macrophage: Execute rats at 25th days after injecting complete adjuvant, then rapidly inject proper amount of Hank's solution into the belly of them, and rub their abdominal wall several times before collecting peritoneal fluid. Wash it with Hank's solution containing 5% calf serum twice, then prepare 1×10^6/mL cell suspension with wholly swelling RPMI1640. Transfer into a culture plate with 24 wells, 1 ml each well. Incubate them in a 5% CO2 incubator overnight at a temperature of 37° C., abandon the supernatant fluid, wash with pre-warmed Hank's solution containing 5% calf serum at 37° C. twice, and remove un-adherent cell. The residue was peritoneal macrophage.
2. IL-1 induction: Add 10 μg/mL lipopolysaccharide (LPS) to the above culture plate with 24 wells, then incubate for 24 hours, centrifuge (2000 rpm, 5 min), collect the […], and filter with micropore filter. This solution was the IL-1 sample to be detected. 3. […]

[1] = tested on: DTH T cell subsets (L3T4+, Lyt-2+); assay: DTH T cell subsets of mouse (DNFB, splenic lymphocytes, immunofluorescence); conditions: 5 mg

## C[C@]12C=CC(=O)C=C1CC[C@@H]1[C@@H]2C(=O)C[C@@]2(C)[C@H]1CC[C@]2(O)C(=O)CO [Prednisone]
interleukin-1 (IL-1)
  OD Value (IL-1 activity): 0.34 ± 0.02
[1]
  Cells number L3T4^+: 59.6 ± 7.5%
  Cells number Lyt-2^+: 56.2 ± 3.8 %
  L3T4^+/Lyt-2^+: 1.21 ± 0.14
